Values joined by “and” are separate entries in the source; they are usually repeats but may differ in a detail not shown here. Equal entries are not always repeated. Inconclusive results and toxic doses are left out. How the source made its calls: active means survival T/C of 150% or more; inactive means T/C below 125% in these data.
Tested on: P388 leukemia ip, CD2F1 mice, survival T/C
Test: NCI In Vivo Anticancer Drug Screen. Data for tumor model P388 Leukemia (intraperitoneal) in CD2F1 (CDF1) mice
Conditions: endpoint: median survival time, higher = longer survival
Summary of the method: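 Mice carrying the transplanted tumor received test compound or vehicle. Survival was recorded in each group, and the value is the treated-group measurement divided by that of the vehicle-treated control group.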

[1] = dose: 50.0 mg/kg/injection, schedule: Q01DX005 (ip), vehicle: Klucel (hydroxypropylcellulose) (HPC)
[2] = dose: 100.0 mg/kg/injection, schedule: Q01DX005 (ip), vehicle: Klucel (hydroxypropylcellulose) (HPC)
[3] = dose: 200.0 mg/kg/injection, schedule: Q01DX005 (ip), vehicle: Klucel (hydroxypropylcellulose) (HPC)
[4] = dose: 25.0 mg/kg/injection, schedule: Q01DX009 (ip), vehicle: saline with Tween-80
[5] = dose: 50.0 mg/kg/injection, schedule: Q01DX009 (ip), vehicle: saline with Tween-80
[6] = dose: 60.0 mg/kg/injection, schedule: Q01DX005 (ip), vehicle: saline with Tween-80
[7] = dose: 120.0 mg/kg/injection, schedule: Q01DX005 (ip), vehicle: saline with Tween-80
[8] = dose: 240.0 mg/kg/injection, schedule: Q01DX005 (ip), vehicle: saline with Tween-80
[9] = dose: 100.0 mg/kg/injection, schedule: Q01DX009 (ip), vehicle: saline with Tween-80

Measured: T/C

[Cl][Pt+2][Cl].[NH-]CC(=O)O.[NH-]CC(=O)O
inactive: dose: 3.13 mg/kg/injection, schedule: Q01DX009 (ip), vehicle: water 100 % of control and 121 % of control | dose: 6.25 mg/kg/injection, schedule: Q01DX009 (ip), vehicle: water 113 % of control | dose: 12.5 mg/kg/injection, schedule: Q01DX009 (ip), vehicle: water 123 % of control and 124 % of control | dose: 25.0 mg/kg/injection, schedule: Q01DX009 (ip), vehicle: water 117 % of control | dose: 50.0 mg/kg/injection, schedule: Q01DX009 (ip), vehicle: water 118 % of control and 121 % of control

O=C1c2ccccc2C2NCCCN12 (stereo not given)
inactive: dose: 50.0 mg/kg/injection, schedule: Q01DX009 (ip), vehicle: suspension in saline 93 % of control | dose: 100.0 mg/kg/injection, schedule: Q01DX009 (ip), vehicle: suspension in saline 102 % of control | dose: 200.0 mg/kg/injection, schedule: Q01DX009 (ip), vehicle: suspension in saline 107 % of control | dose: 400.0 mg/kg/injection, schedule: Q01DX009 (ip), vehicle: suspension in saline 111 % of control

O=C1CCCN1CC#CCN1CCCC1
inactive: dose: 0.79 mg/kg/injection, schedule: Q01DX001 (ip), vehicle: saline 97 % of control | dose: 0.79 mg/kg/injection, schedule: Q01DX005 (ip), vehicle: saline 100 % of control | dose: 1.56 mg/kg/injection, schedule: Q01DX001 (ip), vehicle: saline 103 % of control | dose: 1.56 mg/kg/injection, schedule: Q01DX005 (ip), vehicle: saline 97 % of control | dose: 3.12 mg/kg/injection, schedule: Q01DX001 (ip), vehicle: saline 105 % of control | dose: 3.12 mg/kg/injection, schedule: Q01DX005 (ip), vehicle: saline 97 % of control

c1c[nH]c(C2Nc3ccccc3CO2)c1 (stereo not given)
inactive: [1] 115 % of control | [2] 107 % of control | [3] 112 % of control

COc1cccc2c1C(=O)c1c(O)c3c(c(O)c1C2=O)CC(=O)CC3OC1CC(NC(=O)C(F)(F)F)C(O)C(C)O1 (stereo not given)
inactive: dose: 1.56 mg/kg/injection, schedule: Q01DX009 (ip), vehicle: other 104 % of control | dose: 3.13 mg/kg/injection, schedule: Q01DX009 (ip), vehicle: other 102 % of control | dose: 6.25 mg/kg/injection, schedule: Q01DX009 (ip), vehicle: other 98 % of control | dose: 12.5 mg/kg/injection, schedule: Q01DX009 (ip), vehicle: other 90 % of control

C[N+]1=CN(S(=O)(=O)C2C=CC=CC=C2)C(C)(C)C1(C)C
inactive: dose: 100.0 mg/kg/injection, schedule: Q04DX003 (ip), vehicle: saline 103 % of control | dose: 200.0 mg/kg/injection, schedule: Q04DX003 (ip), vehicle: saline 103 % of control | dose: 400.0 mg/kg/injection, schedule: Q04DX003 (ip), vehicle: saline 99 % of control

CN(C)C=O
inactive: dose: 12.5 mg/kg/injection, schedule: Q01DX009 (ip), vehicle: saline 103 % of control and 111 % of control | dose: 25.0 mg/kg/injection, schedule: Q01DX009 (ip), vehicle: saline 103 % of control and 107 % of control | dose: 50.0 mg/kg/injection, schedule: Q01DX009 (ip), vehicle: saline 107 % of control (2×) and 111 % of control | dose: 100.0 mg/kg/injection, schedule: Q01DX009 (ip), vehicle: saline 109 % of control and 115 % of control and 116 % of control | dose: 800.0 mg/kg/injection, schedule: Q01DX009 (ip), vehicle: saline 120 % of control | dose: 1600.0 mg/kg/injection, schedule: Q01DX009 (ip), vehicle: saline 118 % of control | dose: 2.0 % in 0.5 ml injection vol, schedule: Q01DX009 (ip), vehicle: water 107 % of control and 119 % of control | dose: 4.0 % in 0.5 ml injection vol, schedule: Q01DX009 (ip), vehicle: water 116 % of control and 119 % of control | dose: 8.0 % in 0.5 ml injection vol, schedule: Q01DX009 (ip), vehicle: water 119 % of control

N=C(N)c1ccc(OCCCCCCOc2ccc(C(=N)N)cc2I)cc1
inactive: dose: 3.12 mg/kg/injection, schedule: Q01DX005 (ip), vehicle: Klucel (hydroxypropylcellulose) (HPC) 97 % of control | dose: 6.25 mg/kg/injection, schedule: Q01DX005 (ip), vehicle: Klucel (hydroxypropylcellulose) (HPC) 106 % of control | dose: 12.5 mg/kg/injection, schedule: Q01DX005 (ip), vehicle: Klucel (hydroxypropylcellulose) (HPC) 107 % of control and 97 % of control

CC1(O)C(c2ccccc2)=C(c2ccccc2)C2(c3ccccc3)Oc3c(Cl)c(Cl)c(Cl)c(Cl)c3OC12c1ccccc1 (stereo not given)
inactive: dose: 12.5 mg/kg/injection, schedule: Q01DX009 (ip), vehicle: saline with Tween-80 94 % of control | [4] 94 % of control | [5] 90 % of control and 93 % of control

CNC(=O)Oc1c(C)[nH]ccc1=O
inactive: dose: 400.0 mg/kg/injection, schedule: Q01DX009 (ip), vehicle: saline 107 % of control

Nc1ncnc2c1ncn2C[c-]1[c-][c-][c-][c-]1.[Fe].[c-]1[c-][c-][cH-][c-]1
inactive: [1] 94 % of control | [2] 94 % of control | [3] 100 % of control

O/N=C/C(=Nc1ccc2ccccc2c1)NO
inactive: dose: 60.0 mg/kg/injection, schedule: Q01DX005 (ip), vehicle: Klucel (hydroxypropylcellulose) (HPC) 102 % of control | dose: 120.0 mg/kg/injection, schedule: Q01DX005 (ip), vehicle: Klucel (hydroxypropylcellulose) (HPC) 98 % of control | dose: 240.0 mg/kg/injection, schedule: Q01DX005 (ip), vehicle: Klucel (hydroxypropylcellulose) (HPC) 98 % of control

CCOC(=O)COc1cc2c(cc1C(C)c1ccc(OCc3ccccc3)c(OC)c1)OCO2 (stereo not given)
inactive: [1] 87 % of control | [2] 90 % of control

NCCc1nc(-c2nc(C(=O)Nc3ccccc3)cs2)cs1
inactive: dose: 12.5 mg/kg/injection, schedule: Q01DX009 (ip), vehicle: distilled water + Tween-80 100 % of control | dose: 25.0 mg/kg/injection, schedule: Q01DX009 (ip), vehicle: distilled water + Tween-80 103 % of control | dose: 50.0 mg/kg/injection, schedule: Q01DX009 (ip), vehicle: distilled water + Tween-80 103 % of control | dose: 100.0 mg/kg/injection, schedule: Q01DX009 (ip), vehicle: distilled water + Tween-80 100 % of control

CCOC(=O)C1C2CCCCC21OC (stereo not given)
inactive: [6] 106 % of control | [7] 107 % of control | [8] 110 % of control

ClCc1ccc(Cl)c(Cl)c1Cl
inactive: [4] 100 % of control | dose: 25.0 mg/kg/injection, schedule: Q04DX003 (ip), vehicle: saline with Tween-80 100 % of control | [5] 104 % of control | dose: 50.0 mg/kg/injection, schedule: Q04DX003 (ip), vehicle: saline with Tween-80 100 % of control | [9] 109 % of control | dose: 100.0 mg/kg/injection, schedule: Q04DX003 (ip), vehicle: saline with Tween-80 100 % of control

CC(C)[Si]1(C(C)C)N[Si](C(C)C)(C(C)C)N1
inactive: dose: 15.0 mg/kg/injection, schedule: Q01DX005 (ip), vehicle: saline 115 % of control | dose: 30.0 mg/kg/injection, schedule: Q01DX005 (ip), vehicle: saline 105 % of control | dose: 60.0 mg/kg/injection, schedule: Q01DX005 (ip), vehicle: saline 98 % of control | dose: 120.0 mg/kg/injection, schedule: Q01DX005 (ip), vehicle: saline 106 % of control | dose: 240.0 mg/kg/injection, schedule: Q01DX005 (ip), vehicle: saline 97 % of control

NNC(=O)C12CC3CC(CC(C3)C1)C2
inactive: dose: 25.0 mg/kg/injection, schedule: Q01DX005 (ip), vehicle: Klucel (hydroxypropylcellulose) (HPC) 105 % of control | [1] 105 % of control | [2] 102 % of control | [3] 112 % of control

CN(C)c1ccc2nc3c(cc(Nc4cccc5cccc(Nc6cc7ccccc7c7nc8ccc(N(C)C)cc8[o+]c67)c45)c4ccccc43)[o+]c2c1
inactive: [6] 90 % of control | [7] 100 % of control | [8] 91 % of control

CC1C(c2ccccc2)OCCN1C(N)=S (stereo not given)
inactive: dose: 50.0 mg/kg/injection, schedule: Q01DX009 (ip), vehicle: Klucel (hydroxypropylcellulose) (HPC) 108 % of control | dose: 100.0 mg/kg/injection, schedule: Q01DX009 (ip), vehicle: Klucel (hydroxypropylcellulose) (HPC) 101 % of control | dose: 200.0 mg/kg/injection, schedule: Q01DX009 (ip), vehicle: Klucel (hydroxypropylcellulose) (HPC) 101 % of control

NC(Cc1ccc(O)cc1)c1nn[nH]n1 (stereo not given)
inactive: [4] 114 % of control | [5] 100 % of control | [9] 99 % of control

Cc1ccc2sc3c(ccc(=O)n3C)c(=O)c2c1
inactive: dose: 100.0 mg/kg/injection, schedule: Q04DX002 (ip), vehicle: saline with Tween-80 115 % of control | dose: 200.0 mg/kg/injection, schedule: Q04DX002 (ip), vehicle: saline with Tween-80 120 % of control

COc1cc(OC)c(/C=N/Nc2cc(C)c3ccc(OC)cc3n2)c(OC)c1
inactive: [1] 105 % of control | [2] 113 % of control | [3] 114 % of control
